Source: US20260265271A1, “Cereblon Ligands and Uses Thereof” (REGENTS OF THE UNIVERSITY OF MICHIGAN, priority 2022, published 2026)
Read-outs that look alike come from different tables or passages of the source.

Biological target: T1, IKZF2 (Homo sapiens, UniProt Q96SW2+Q9UKS7)
T1 construct: host or cells: Jurkat-IKZF2-HiBiT
Assay: IKZF2 HiBiT degradation assay (Jurkat-IKZF2-HiBiT)
Format: cell-based
Conditions: for DC50: read-out: IKZF2 degradation DC50; for Dmax: read-out: IKZF2 degradation Dmax (%)
Description: Degradation of IKZF2 protein was determined by IKZF2 HiBiT assay using the Jurkat-IKZF2-HiBiT (Promega) cell line. […] Compounds were serially diluted in culture medium, and 20 μl of the diluted compounds were added to the appropriate wells of the plate. After the addition of compounds, the cells were incubated at 37° C. in an atmosphere of 5% CO2 for 24 hours. At the end of treatment, 40 ul of Nano-Glo HiBiT Lytic Detection Reagent (Promega) was added to each well, and then the plates were incubated at room temperature for 10-20 minutes. The luminescent signal was measured using a CALRIOstar plate reader (BMG Labtech). The readings were normalized to the DMSO-treated cells and the IC50 was calculated by nonlinear regression (four parameters sigmoid fitted with variable slope, least squares fit, and no constraint) analysis using the GraphPad Prism 8 software.

[1] = Jurkat-IKZF2-HiBiT cells, 24 hours

T1 sequence (Q9UKS7 whole entry): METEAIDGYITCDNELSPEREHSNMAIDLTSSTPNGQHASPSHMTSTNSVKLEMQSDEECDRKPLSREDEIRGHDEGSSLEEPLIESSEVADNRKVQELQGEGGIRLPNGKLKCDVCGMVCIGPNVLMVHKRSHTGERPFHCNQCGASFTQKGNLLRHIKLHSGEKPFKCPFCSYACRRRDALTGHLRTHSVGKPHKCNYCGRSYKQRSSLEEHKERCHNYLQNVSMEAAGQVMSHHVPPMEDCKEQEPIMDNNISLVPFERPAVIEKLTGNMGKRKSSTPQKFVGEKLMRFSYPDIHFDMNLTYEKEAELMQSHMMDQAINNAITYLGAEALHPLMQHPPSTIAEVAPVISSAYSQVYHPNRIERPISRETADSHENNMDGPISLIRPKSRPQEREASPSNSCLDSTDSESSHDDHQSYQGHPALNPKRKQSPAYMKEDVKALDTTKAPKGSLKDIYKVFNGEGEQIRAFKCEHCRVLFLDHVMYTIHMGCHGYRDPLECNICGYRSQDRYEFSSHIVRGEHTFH
T1 sequence (Q96SW2 whole entry): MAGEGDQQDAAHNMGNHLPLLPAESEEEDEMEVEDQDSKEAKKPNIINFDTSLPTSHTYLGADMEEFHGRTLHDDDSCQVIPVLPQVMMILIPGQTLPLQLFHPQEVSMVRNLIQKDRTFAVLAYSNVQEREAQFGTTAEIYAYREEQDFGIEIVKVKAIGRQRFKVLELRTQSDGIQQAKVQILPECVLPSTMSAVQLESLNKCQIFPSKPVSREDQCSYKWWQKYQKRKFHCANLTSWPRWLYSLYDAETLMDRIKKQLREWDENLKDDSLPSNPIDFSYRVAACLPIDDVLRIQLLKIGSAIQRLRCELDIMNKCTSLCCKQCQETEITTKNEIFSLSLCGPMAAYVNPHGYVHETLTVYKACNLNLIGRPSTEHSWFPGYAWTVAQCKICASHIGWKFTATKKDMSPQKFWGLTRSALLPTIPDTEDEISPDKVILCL
T1 sequence (Q16531 2-1140 partner limits assumed): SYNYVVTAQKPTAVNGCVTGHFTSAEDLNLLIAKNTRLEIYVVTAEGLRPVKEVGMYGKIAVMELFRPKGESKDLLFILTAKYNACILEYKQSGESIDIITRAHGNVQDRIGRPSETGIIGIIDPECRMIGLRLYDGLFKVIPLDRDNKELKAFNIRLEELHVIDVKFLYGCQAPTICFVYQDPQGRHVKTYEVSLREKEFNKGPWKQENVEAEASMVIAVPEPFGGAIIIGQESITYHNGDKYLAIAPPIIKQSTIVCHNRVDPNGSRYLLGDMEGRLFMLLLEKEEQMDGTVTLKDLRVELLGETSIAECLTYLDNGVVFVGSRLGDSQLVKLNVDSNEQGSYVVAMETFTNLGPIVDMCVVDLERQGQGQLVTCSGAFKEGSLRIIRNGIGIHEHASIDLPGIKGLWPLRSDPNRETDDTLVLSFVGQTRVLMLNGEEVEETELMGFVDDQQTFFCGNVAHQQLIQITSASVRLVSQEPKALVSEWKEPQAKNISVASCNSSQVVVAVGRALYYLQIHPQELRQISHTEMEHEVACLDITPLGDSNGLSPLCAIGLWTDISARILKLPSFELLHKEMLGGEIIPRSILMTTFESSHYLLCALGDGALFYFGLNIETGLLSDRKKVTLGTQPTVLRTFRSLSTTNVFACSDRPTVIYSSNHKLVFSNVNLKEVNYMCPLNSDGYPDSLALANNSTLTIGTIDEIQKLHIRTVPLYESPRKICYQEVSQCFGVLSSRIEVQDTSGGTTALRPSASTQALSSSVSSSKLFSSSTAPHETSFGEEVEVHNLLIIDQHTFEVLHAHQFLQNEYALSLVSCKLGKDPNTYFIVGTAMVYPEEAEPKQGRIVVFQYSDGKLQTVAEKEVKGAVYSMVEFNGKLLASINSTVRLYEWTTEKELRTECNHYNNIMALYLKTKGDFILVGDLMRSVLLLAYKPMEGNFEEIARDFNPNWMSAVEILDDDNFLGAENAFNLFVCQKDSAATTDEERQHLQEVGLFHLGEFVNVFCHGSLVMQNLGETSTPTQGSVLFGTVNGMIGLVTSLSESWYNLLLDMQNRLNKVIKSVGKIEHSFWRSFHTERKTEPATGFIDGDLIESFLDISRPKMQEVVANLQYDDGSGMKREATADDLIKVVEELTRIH

`O=C1CCC(N2Cc3cc4c(cc3C2=O)OC[C@@H]2CN(CC3CCN(c5ccccc5)CC3)CCN42)C(=O)N1` (stereo partly drawn) [Compound C7, 3-((S)-8-oxo-3-((1-phenylpiperidin-4-yl)methyl)-1,2,3,4,4a,5,8,10-octahydro-9H-pyrazino[1′,2′:4,5][1,4]oxazino[2,3-f]isoindol-9-yl)piperidine-2,6-dione] gave a DC50 [1] of 320 nM and a Dmax of 50%.
`CC(=O)N1CC2(CCC(CN3CCN4c5cc6c(cc5OC[C@@H]4C3)C(=O)N(C3CCC(=O)NC3=O)C6)CC2)C1` (stereo partly drawn) [Compound C6, 3-((S)-3-((2-acetyl-2-azaspiro[3.5]nonan-7-yl)methyl)-8-oxo-1,2,3,4,4a,5,8,10-octahydro-9H-pyrazino[1′,2′:4,5][1,4]oxazino[2,3-f]isoindol-9-yl)piperidine-2,6-dione] showed a DC50 [1] of 330 nM and a Dmax of 62%.
With `O=C1CCC(N2Cc3cc(C4CCN(Cc5ccccc5)CC4)ccc3C2=O)C(=O)N1` (stereo not shown) [DKY709] the Dmax [1] was 67% and the DC50 [1] was 62 nM.
In the case of `Cn1cc(-c2cccc(CN3CCN4c5cc6c(cc5OC[C@@H]4C3)C(=O)N([C@H]3CCC(=O)NC3=O)C6)c2)cn1` [Compound C20, (S)-3-((S)-3-(3-(1-methyl-1H-pyrazol-4-yl)benzyl)-8-oxo-1,2,3,4,4a,5,8,10-octahydro-9H-pyrazino[1′,2′:4,5][1,4]oxazino[2,3-f]isoindol-9-yl)piperidine-2,6-dione], the DC50 [1] is reported as > 10000 nM and the Dmax is reported as 27%.
In the case of `CC(=O)N1CCC(CCN2CCN3c4cc5c(cc4OC[C@@H]3C2)C(=O)N(C2CCC(=O)NC2=O)C5)CC1` (stereo partly drawn) [Compound C5, 3-((S)-3-(2-(1-acetylpiperidin-4-yl)ethyl)-8-oxo-1,2,3,4,4a,5,8,10-octahydro-9H-pyrazino[1′,2′:4,5][1,4]oxazino[2,3-f]isoindol-9-yl)piperidine-2,6-dione], the DC50 [1] is reported as > 2000 nM and the Dmax is reported as 38%.
Work on `Cc1ccc(C(=O)Nc2cccc(CN3CCN4c5cc6c(cc5OC[C@@H]4C3)C(=O)N([C@H]3CCC(=O)NC3=O)C6)c2)cc1` [Compound C23, N-(3-(((S)-9-((S)-2,6-dioxopiperidin-3-yl)-8-oxo-1,2,4a,5,9,10-hexahydro-8H-pyrazino[1′,2′:4,5][1,4]oxazino[2,3-f]isoindol-3(4H)-yl)methyl)phenyl)-4-methylbenzamide] yielded a DC50 [1] of 18 nM and a Dmax of 77%.
With `O=C1CCC(N2Cc3cc4c(cc3C2=O)OC[C@@H]2CN(CC3CCCCC3)CCN42)C(=O)N1` (stereo partly drawn) [Compound C2, 3-((S)-3-(cyclohexylmethyl)-8-oxo-1,2,3,4,4a,5,8,10-octahydro-9H-pyrazino[1′,2′:4,5][1,4]oxazino[2,3-f]isoindol-9-yl)piperidine-2,6-dione] the DC50 [1] was 1400 nM and the Dmax was 56%.
In the case of `CC(=O)Nc1cccc(CN2CCN3c4cc5c(cc4OC[C@@H]3C2)C(=O)N([C@H]2CCC(=O)NC2=O)C5)c1` [Compound C26, N-(3-(((S)-9-((S)-2,6-dioxopiperidin-3-yl)-8-oxo-1,2,4a,5,9,10-hexahydro-8H-pyrazino[1′,2′:4,5][1,4]oxazino[2,3-f]isoindol-3(4H)-yl)methyl)phenyl)acetamide], the DC50 [1] is reported as > 1000 nM and the Dmax is reported as 33%.
In the case of `O=C1CC[C@H](N2Cc3cc4c(cc3C2=O)OC[C@@H]2CN(CC3CC5CCC3CC5)CCN42)C(=O)N1` (stereo partly drawn) [Compound C37, (3S)-3-((4aS)-3-(bicyclo[2.2.2]octan-2-ylmethyl)-8-oxo-1,2,3,4,4a,5,8,10-octahydro-9H-pyrazino[1′,2′:4,5][1,4]oxazino[2,3-f]isoindol-9-yl)piperidine-2,6-dione], the DC50 [1] is reported as 318 nM and the Dmax is reported as 69%.
With `COc1ccc(C(=O)Nc2cccc(CN3CCN4c5cc6c(cc5OC[C@@H]4C3)C(=O)N([C@H]3CCC(=O)NC3=O)C6)c2)cc1` [Compound C21, N-(3-(((S)-9-((S)-2,6-dioxopiperidin-3-yl)-8-oxo-1,2,4a,5,9,10-hexahydro-8H-pyrazino[1′,2′:4,5][1,4]oxazino[2,3-f]isoindol-3(4H)-yl)methyl)phenyl)-4-methoxybenzamide] the DC50 [1] was 9 nM and the Dmax was 85%.
With `COc1ccc(C(=O)Nc2cccc(CN3CCN4c5cc6c(cc5OC[C@H]4C3)C(=O)N(C3CCC(=O)NC3=O)C6)c2)cc1` (stereo partly drawn) [Compound C22, N-(3-(((4aR)-9-(2,6-dioxopiperidin-3-yl)-8-oxo-1,2,4a,5,9,10-hexahydro-8H-pyrazino[1′,2′:4,5][1,4]oxazino[2,3-f]isoindol-3(4H)-yl)methyl)phenyl)-4-methoxybenzamide] the DC50 [1] was > 1000 nM and the Dmax was 44%.
`O=C1CC[C@H](N2Cc3cc4c(cc3C2=O)OC[C@@H]2CN(Cc3cccc(NC(=O)c5ccc(Cl)cc5)c3)CCN42)C(=O)N1` [Compound C24, 4-chloro-N-(3-(((S)-9-((S)-2,6-dioxopiperidin-3-yl)-8-oxo-1,2,4a,5,9,10-hexahydro-8H-pyrazino[1′,2′:4,5][1,4]oxazino[2,3-f]isoindol-3(4H)-yl)methyl)phenyl)benzamide] showed a DC50 [1] of 25 nM and a Dmax of 77%.
`CCCN1CCN2c3cc4c(cc3OC[C@@H]2C1)C(=O)N(C1CCC(=O)NC1=O)C4` (stereo partly drawn) [Compound C3, 3-((S)-8-oxo-3-385.21propyl-1,2,3,4,4a,5,8,10-octahydro-9H-pyrazino[1′,2′:4,5][1,4]oxazino[2,3-f]isoindol-9-yl)piperidine-2,6-dione] was tested, and the DC50 [1] was > 2000 nM and the Dmax was 58%.
With `COc1ccc(C(=O)N(C)c2cccc(CN3CCN4c5cc6c(cc5OC[C@@H]4C3)C(=O)N([C@H]3CCC(=O)NC3=O)C6)c2)cc1` [Compound C27, N-(3-(((S)-9-((S)-2,6-dioxopiperidin-3-yl)-8-oxo-1,2,4a,5,9,10-hexahydro-8H-pyrazino[1′,2′:4,5][1,4]oxazino[2,3-f]isoindol-3(4H)-yl)methyl)phenyl)-4-methoxy-N-methylbenzamide] the DC50 [1] was > 10000 nM and the Dmax was 21%.
In the case of `CC1(C)CCC(CN2CCN3c4cc5c(cc4OC[C@@H]3C2)C(=O)N([C@H]2CCC(=O)NC2=O)C5)CC1` [Compound C34, (S)-3-((S)-3-((4,4-dimethylcyclohexyl)methyl)-8-oxo-1,2,3,4,4a,5,8,10-octahydro-9H-pyrazino[1′,2′:4,5][1,4]oxazino[2,3-f]isoindol-9-yl)piperidine-2,6-dione], the DC50 [1] is reported as 414 nM and the Dmax is reported as 68%.
In the case of `O=C1CC[C@H](N2Cc3cc4c(cc3C2=O)OC[C@@H]2CN(CC3CCCC3)CCN42)C(=O)N1` [Compound C29, (S)-3-((S)-3-(cyclopentylmethyl)-8-oxo-1,2,3,4a,5,8,10-octahydro-9H-pyrazino[1′,2′:4,5][1,4]oxazino[2,3-f]isoindol-9-yl)piperidine-2,6-dione], the DC50 [1] is reported as 402 nM and the Dmax is reported as 61%.
For `O=C1CCC(N2Cc3cc4c(cc3C2=O)OC[C@@H]2CN(Cc3ccccc3)CCN42)C(=O)N1` (stereo partly drawn) [Compound C1, 3-((S)-3-benzyl-8-oxo-1,2,3,4,4a,5,8,10-octahydro-9H-pyrazino[1′,2′:4,5][1,4]oxazino[2,3-f]isoindol-9-yl)piperidine-2,6-dione], the DC50 [1] was > 2000 nM and the Dmax was 27%.
Work on `CC(C)(C)OC(=O)N1CCC2(CCC(CN3CCN4c5cc6c(cc5OC[C@@H]4C3)C(=O)N([C@H]3CCC(=O)NC3=O)C6)CC2)CC1` [Compound C38, tert-butyl 9-(((S)-9-((S)-2,6-dioxopiperidin-3-yl)-8-oxo-1,2,4a,5,9,10-hexahydro-8H-pyrazino[1′,2′:4,5][1,4]oxazino[2,3-f]isoindol-3(4H)-yl)methyl)-3-azaspiro[5.5]undecane-3-carboxylate] yielded a DC50 [1] of 424 nM and a Dmax of 57%.
For `O=C1CC[C@H](N2Cc3cc4c(cc3C2=O)OC[C@@H]2CN(CC3CC5CCC3C5)CCN42)C(=O)N1` (stereo partly drawn) [Compound C36, (3S)-3-((4aS)-3-(bicyclo[2.2.1]heptan-2-ylmethyl)-8-oxo-1,2,3,4,4a,5,8,10-octahydro-9H-pyrazino[1′,2′:4,5][1,4]oxazino[2,3-f]isoindol-9-yl)piperidine-2,6-dione], the DC50 [1] was 376 nM and the Dmax was 68%.
Compound `O=C1CC[C@H](N2Cc3cc4c(cc3C2=O)OC[C@@H]2CN(CC3CCC3)CCN42)C(=O)N1` [Compound C31, (S)-3-((S)-3-(cyclobutylmethyl)-8-oxo-1,2,3,4,4a,5,8,10-octahydro-9H-pyrazino[1′,2′:4,5][1,4]oxazino[2,3-f]isoindol-9-yl)piperidine-2,6-dione] has a DC50 [1] of 1260 nM and a Dmax of 58%.
With `C[C@H]1CC[C@H](CN2CCN3c4cc5c(cc4OC[C@@H]3C2)C(=O)N([C@H]2CCC(=O)NC2=O)C5)CC1` [Compound C33, (S)-3-((S)-3-(((1r,4S)-4-methylcyclohexyl)methyl)-8-oxo-1,2,3,4,4a,5,8,10-octahydro-9H-pyrazino[1′,2′:4,5][1,4]oxazino[2,3-f]isoindol-9-yl)piperidine-2,6-dione] the DC50 [1] was 515 nM and the Dmax was 67%.
Work on `O=C1CCC(N2Cc3cc4c(cc3C2=O)OC[C@@H]2CN(CC3CCCC3)CCN42)C(=O)N1` (stereo partly drawn) [Compound C4, 3-((S)-3-(cyclopentylmethyl)-8-oxo-1,2,3,4,4a,5,8,10-octahydro-9H-pyrazino[1′,2′:4,5][1,4]oxazino[2,3-f]isoindol-9-yl)piperidine-2,6-dione] yielded a DC50 [1] of 430 nM and a Dmax of 61%.
`O=C1CC[C@H](N2Cc3cc4c(cc3C2=O)OC[C@@H]2CN(CCC3CCCCC3)CCN42)C(=O)N1` [Compound C32, (S)-3-((S)-3-(2-cyclohexylethyl)-8-oxo-1,2,3,4,4a,5,8,10-octahydro-9H-pyrazino[1′,2′:4,5][1,4]oxazino[2,3-f]isoindol-9-yl)piperidine-2,6-dione] showed a DC50 [1] of 324 nM and a Dmax of 71%.
